Reference: patent US20160115146A1, “3-CARBOXY SUBSTITUTED COUMARIN DERIVATIVES WITH A POTENTIAL UTILITY FOR THE TREATMENT OF CANCER DISEASES” (UNIVERSITE CATHOLIQUE DE LOUVAIN, priority 2013, published 2016)

Key:
SiHa cells xenograft [1] = assay: In vivo anti-cancer activity against cervix cancer (SiHa cells xenograft model); details: nude NMRI mice, 3 mg/kg daily IP, FIG. 1(A)
Method: 7 weeks old female nude mice (Janvier®, 4-5 mice per group, Balb-c or NMRI) with various human cancer cell lines xenografts were used. SiHa cells were subcutaneously injected (10^6 to 2.10^6 (10^6 or 2.10^6) cells in sterile NaCl 0.9% per mouse) on the left flank of the mice (100 μl/mouse). […] Tumor volume was calculated as following: (length×width^2×π)/6 and expressed in mm^3. Tumor growth delay graphs and statistical analysis (Two-way ANOVA) were performed using GraphPad Prism 4 software.

SiHa cells [2] = assay: Cytotoxicity/anti-proliferative MTT assay, lactate as energy source; assay type: cell-based; details: Homo sapiens, DMEM 10 mM L-lactate without glucose, 72 h
Method: SiHa cells (human cervix squamous carcinoma) were routinely cultured in DMEM containing serum and antibiotics as previously described in Sonveaux, P. et al. J. Clin. Invest 2008 118, 3930. Two distinct media were used for the cytotoxicity assay, either DMEM containing 25 mM D-glucose (without pyruvate) or DMEM containing 10 mM L-lactate (without glucose). SiHa cells were seeded in flat-bottom 96-well plates in normal DMEM. After 6 h of incubation, the culture medium was replaced by 100 μl of glucose- or lactate-containing medium and incubated overnight for metabolic adaptation. SiHa cells were treated with the compounds of the invention at a concentration range of 0.01 μM to 100 μM. After a 72 h incubation at 37° C., cell medium was removed and replaced by freshly prepared MTT in PBS (1 mg/ml, 100 μl/well). After a 3 h incubation at 37° C., the plates were centrifuged (1000 g, 10 min at 4° C.) and the supernatant was removed before addition of DMSO (100 μl/well). Plates were kept for 10 min in the dark before reading at the spectrophotometer (Victor X4).

HCT116 cells xenograft = assay: In vivo anti-cancer activity against colon cancer (HCT116 cells xenograft model); details: nude NMRI mice, 3 mg/kg daily IP, FIG. 2
Method: (§1) Seven weeks old female nude mice (Janvier®, 4-5 mice per group, NMRI), were used for the experiments. HCT116 cells were subcutaneously injected (2.10^6 cells in sterile NaCl 0.9% per mouse) on the left flank of the mice (100 μl/mouse). The treatment of the mice with compounds of the invention was started when tumor xenografts reached approximately 5 mm of length and width (Caliper® measurement). […] Tumor volume was calculated as the following: (length×width^2×π)/6 and expressed in mm^3. Tumor growth delay graphs and statistical analysis (Two-way ANOVA) were performed using GraphPad Prism 4 software.

SiHa cells xenograft [3] = assay: In vivo anti-cancer activity in combination with cisplatin against cervix cancer (SiHa cells xenograft model); details: nude NMRI mice, cisplatin 5 mg/kg IP day 0 and 7 plus compound 3 mg/kg daily IP day 1-6 and 8-11, FIG. 3
Method: as §1, with “SiHa” for “HCT116”

SiHa cells [4] = assay: [14C]-lactate uptake assay (inhibition of lactate influx); assay type: cell-based; details: Homo sapiens, 0.2 h, 2 μM [14C]-lactate for 12 min
Method: After 6 h of incubation, the culture medium was replaced by 1 ml of DMEM containing 10 mM lactate and incubated overnight for metabolic adaptation.

SiHa cells [5] = assay: Lactate consumption assay (inhibition of lactate influx); assay type: cell-based; details: Homo sapiens, 24 h treatment in lactate-containing medium
Method: SiHa cells were seeded on flat-bottom 24-well plates (500 000 cells/well) in normal DMEM. After 6 h of incubation, the culture medium was replaced by 1 ml of DMEM containing 10 mM lactate and incubated overnight for metabolic adaptation. Cells were then treated for 24 h with increasing concentrations of compounds (0.1, 1, 10 and 100 μM) in lactate-containing medium at 37° C. The supernatants were then centrifuged using deproteinizing columns (15 min, 10000 g at 4° C.) and lactate concentration was determined using the enzymatic assay commercialized by CMA Microdialysis AB on a CMA600 analyzer (Aurora Borealis).

Compound	CC50 (SiHa cells [2]) [nM]	other results
CN(Cc1ccccc1)c1ccc2cc(C(=O)O)c(=O)oc2c1 [cpd 31, 7-(benzyl(methyl)amino)-2-oxo-2H-chromene-3-carboxylic acid]	220	Tumor growth delay (tumor volume) (SiHa cells xenograft [1]): clear tumor growth delay; Tumor growth delay (tumor volume) (HCT116 cells xenograft): clear tumor growth delay; Delay in tumor relapse (tumor volume) (SiHa cells xenograft [3]): clear delay in tumor relapse; IC50 (SiHa cells [4]): 11 nM; IC50 (SiHa cells [5]): 59 nM
CCCN(Cc1ccccc1)c1ccc2cc(C(=O)O)c(=O)oc2c1 [cpd 44, 7-(benzyl(propyl)amino)-2-oxo-2H-chromene-3-carboxylic acid]	11100	
CCN(Cc1ccccc1)c1ccc2cc(C(=O)O)c(=O)oc2c1 [cpd 41, 7-(benzyl(ethyl)amino)-2-oxo-2H-chromene-3-carboxylic acid]	1900	
CN(Cc1cccc(F)c1)c1ccc2cc(C(=O)O)c(=O)oc2c1 [cpd 47, 7-((3-fluorobenzyl)(methyl)amino)-2-oxo-2H-chromene-3-carboxylic acid]	40	
O=C(O)c1cc2ccc(NCc3ccccc3)cc2oc1=O [cpd 39, 7-(benzylamino)-2-oxo-2H-chromene-3-carboxylic acid]	1790	
O=C(O)c1cc2ccc(N(Cc3ccccc3)Cc3ccccc3)cc2oc1=O [cpd 51, 7-(dibenzylamino)-2-oxo-2H-chromene-3-carboxylic acid]	12700	
O=C(O)c1cc2ccc(OCc3ccccc3Cl)cc2oc1=O [cpd 11, 7-((2-chlorobenzyl)oxy)-2-oxo-2H-chromene-3-carboxylic acid]	4230	
O=C(O)c1cc2ccc(N3CCOCC3)cc2oc1=O [cpd 34, 7-morpholino-2-oxo-2H-chromene-3-carboxylic acid]	17500	IC50 (SiHa cells [5]): 7900 nM
CN(CC1CCOCC1)c1ccc2cc(C(=O)O)c(=O)oc2c1 [cpd 50, 7-(methyl((tetrahydro-2H-pyran-4-yl)methyl)amino)-2-oxo-2H-chromene-3-carboxylic acid]	100	
O=C(O)c1cc2cc3c4c(c2oc1=O)CCCN4CCC3 [cpd 37, 11-oxo-2,3,5,6,7,11-hexahydro-1H-pyrano[2,3 - f]pyrido[3,2,1-ij]quinoline-10-carboxylic acid]	1200	IC50 (SiHa cells [5]): 1300 nM
CC(C)=CCC/C(C)=C/COc1ccc2cc(C(=O)O)c(=O)oc2c1 [cpd 17, (E)-7-((3,7-dimethylocta-2,6-dien-1-yl)oxy)-2-oxo-2H-chromene-3-carboxylic acid]	11700	
O=C(O)c1cc2ccc(OC3Cc4ccccc4C3)cc2oc1=O [cpd 30, 7-((2,3-dihydro-1H-inden-2-yl)oxy)-2-oxo-2H-chromene-3-carboxylic acid]	7800	
CN(Cc1cccs1)c1ccc2cc(C(=O)O)c(=O)oc2c1 [cpd 46, 7-(methyl(thiophen-2-ylmethyl)amino)-2-oxo-2H-chromene-3-carboxylic acid]	210	
COc1ccc2cc(C(=O)O)c(=O)oc2c1 [cpd 2, 7-methoxy-2-oxo-2H-chromene-3-carboxylic acid]	9800	IC50 (SiHa cells [5]): 2300 nM
CC(C)CN(Cc1ccccc1)c1ccc2cc(C(=O)O)c(=O)oc2c1 [cpd 43, 7-(benzyl(isobutyl)amino)-2-oxo-2H-chromene-3-carboxylic acid]	16300	
O=C(O)c1cc2ccc(OCc3cccc(F)c3)cc2oc1=O [cpd 7, 7-((3-fluorobenzyl)oxy)-2-oxo-2H-chromene-3-carboxylic acid]	1170	

Compound	CC50 (SiHa cells [2]) [nM]	other results
O=C(O)c1cc2ccc(N3CCCC3)cc2oc1=O [cpd 33, 2-oxo-7-(pyrrolidin-1-yl)-2H-chromene-3-carboxylic acid]	14300	
CN(CC1CCCCC1)c1ccc2cc(C(=O)O)c(=O)oc2c1 [cpd 48, 7-((cyclohexylmethyl)(methyl)amino)-2-oxo-2H-chromene-3-carboxylic acid]	200	
O=C(O)c1cc2ccc(OCc3ccc(Cl)c(Cl)c3)cc2oc1=O [cpd 19, 7-((3,4-dichlorobenzyl)oxy)-2-oxo-2H-chromene-3-carboxylic acid]	68400	
CC(C)CN(C)c1ccc2cc(C(=O)O)c(=O)oc2c1 [cpd 45, 7-(isobutyl(methyl)amino)-2-oxo-2H-chromene-3-carboxylic acid]	220	
COc1ccc(OC)c(COc2ccc3cc(C(=O)O)c(=O)oc3c2)c1 [cpd 22]	702	
COc1cccc(CN(C)c2ccc3cc(C(=O)O)c(=O)oc3c2)c1 [cpd 49, 7-((3-methoxybenzyl)(methyl)amino)-2-oxo-2H-chromene-3-carboxylic acid]	70	
O=C(O)c1cc2ccc(OCCc3ccccc3)cc2oc1=O [cpd 15, 2-oxo-7-phenethoxy-2H-chromene-3-carboxylic acid]	5600	IC50 (SiHa cells [5]): 2400 nM
O=C(O)c1cc2ccc(OCc3ccc(F)cc3)cc2oc1=O [cpd 26, 7-((4-fluorobenzyl)oxy)-2-oxo-2H-chromene-3-carboxylic acid]	3900	IC50 (SiHa cells [5]): 1250 nM
O=C(Nc1ccc2cc(C(=O)O)c(=O)oc2c1)c1ccccc1 [cpd 116, 7-benzamido-2-oxo-2H-chromene-3-carboxylic acid]	1500	
O=C(O)c1cc2ccc(OCc3cc(C(F)(F)F)cc(C(F)(F)F)c3)cc2oc1=O [cpd 3, 7-((3,5-bis(trifluoromethyl)benzyl)oxy)-2-oxo-2H-chromene-3-carboxylic acid]	600	
COc1cccc(COc2ccc3cc(C(=O)O)c(=O)oc3c2)c1 [cpd 13]	4600	
CN(C)c1ccc2cc(C(=O)O)c(=O)oc2c1 [cpd 35, 7-(dimethlamino)-2-oxo-2H-chromene-3-carboxylic acid]	2900	IC50 (SiHa cells [5]): 1400 nM
O=C(O)c1cc2ccc(OCc3ccc(C(F)(F)F)cc3)cc2oc1=O [cpd 28, 2-oxo-7-((4-(trifluoromethyl)benzyl)oxy)-2H-chromene-3-carboxylic acid]	6860	
O=C(O)c1cc2ccc(OCc3cccc4ccccc34)cc2oc1=O [cpd 5, 7-(naphthalen-1-ylmethoxy) 2-oxo-2H-chromene-3-carboxylic acid]	1090	
O=C(O)c1cc2ccc(OCn3nnc4ccccc43)cc2oc1=O [cpd 24, 7-((1H-benzo[d][1,2,3]triazol-1-yl)methoxy)-2-oxo-2H-chromene-3-carboxylic acid]	1100	
O=C(O)c1cc2ccc(OCc3ccccc3)cc2oc1=O [cpd 9, 7-(benzyloxy)-2-oxo-2H-chromene-3-cartboxylic acid]	9100	IC50 (SiHa cells [5]): 1900 nM
